This passage reports melting point and IC50 results from patent publication US20080275085A1, “Piperidine derivative and use thereof” (priority 2007, published 2008).

Counter-ions that a name gives are not always drawn.

The target of one series is T1, substance P receptor (Homo sapiens, UniProt P25103).
T1 construct: The receptor was prepared from human lymphoblast cells (IM-9); endogenous in cells; host or cells: IM-9 human lymphoblast cells (membrane fraction, 100,000xG precipitate)
In words: Radioligand receptor binding inhibitory activity (125I-BHSP binding, receptor from IM-9 cells). The conditions noted are these: receptor from human lymphoblast cells (IM-9); radioligand 125I-BHSP; 25° C., 30 min. The procedure:
Radioligand Receptor Binding Inhibitory Activity (Binding Inhibitory Activity Using Receptor from Human Lymphoblast Cells (IM-9))
The method of M. A. Cascieri et al., “Molecular Pharmacology, vol. 42, p. 458 (1992)” was modified and used. The receptor was prepared from human lymphoblast cells (IM-9).
IM-9 cells (2×10^5 cells/mL) were inoculated and incubated for 3 days, which was then subjected to centrifugation for 10 min. at 500×G to give cell pellets. The obtained pellets were washed with PBS (GIBCO), disrupted in buffer A (50 mM tris.hydrochloric acid buffer (pH 7.4) containing 120 mM sodium chloride, 5 mM potassium chloride, 2 μg/mL chymostatin, 40 μg/mL bacitracin, 40 μg/mL APMSF, 1 mM ethylenediamine tetra acetic acid) using a polytron.homogenizer [manufactured by Kinematika, Germany], and centrifuged at 100,000×G for 40 min. The precipitated fraction was suspended in buffer B (50 mM Tris-HCl (pH 7.4), 0.02% bovine serum albumin, 2 μg/mL chymostatin, 40 μg/mL bacitracin, 40 μg/mL APMSF, 3 mM MgCl2), which was then cryopreserved (−80° C.) as a receptor specimen.
Buffer B (50 μL) was added to a 96 well microassay plate (CORNING). Thereto was added 50 μL of membrane preparation suspended in buffer B at 250 μg/mL. A measurement buffer (50 μL) containing 2% dimethyl sulfoxide was added to examine total binding; 4 μM unlabeled SP (50 μL) diluted with a measurement buffer containing 2% dimethyl sulfoxide was added to examine non-specific binding; and 50 μL of a test compound (containing 2% dimethyl sulfoxide) diluted with a measurement buffer was added to examine binding inhibitory activity of the test compound. In addition, […] ^125I-BHSP solution (50 μL) was added to each well.
After reaction at 25° C. for 30 min, the cells were rapidly filtered through a GF/C filter plate (PerkinElmer) using a cell harvester (manufactured by PerkinElmer) to quench the reaction, and washed 10 times with 250 μL of 50 mM tris-HCl buffer (pH 7.4) containing 0.02% bovine serum albumin. The GF/C filter plate was dried, MicroScinti 0 (20 μL) was added, and the radioactivity was measured with TopCount (manufactured by PerkinElmer). The GF/C filter plate was immersed in 0.3% polyethylene imine for one day before use.
Specific binding is a value obtained by subtracting nonspecific binding from total binding. The binding inhibitory activity of a test compound is shown by a ratio of a value obtained by subtracting a measurement value with addition of a test compound from the total binding, relative to specific binding.
The antagonistic activity of the compounds obtained in the Examples was determined as a concentration necessary for causing 50% inhibition (IC50 value) under the above-described conditions, and the results shown in Table 34 were obtained.
The radio ligand means substance P labeled with [^125I].

T1 sequence (P25103 whole entry): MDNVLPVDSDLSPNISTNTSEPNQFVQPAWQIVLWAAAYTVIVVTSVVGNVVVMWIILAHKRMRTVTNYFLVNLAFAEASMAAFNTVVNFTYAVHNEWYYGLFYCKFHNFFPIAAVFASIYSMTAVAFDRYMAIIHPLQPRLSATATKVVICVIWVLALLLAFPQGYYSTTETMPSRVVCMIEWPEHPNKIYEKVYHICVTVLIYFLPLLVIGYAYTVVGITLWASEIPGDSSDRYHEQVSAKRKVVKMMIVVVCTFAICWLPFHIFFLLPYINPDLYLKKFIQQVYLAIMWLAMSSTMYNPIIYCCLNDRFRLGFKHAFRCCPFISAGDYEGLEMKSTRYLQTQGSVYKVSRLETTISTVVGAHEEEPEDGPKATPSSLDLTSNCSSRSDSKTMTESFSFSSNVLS

On to `CC(=O)Nc1ccc(N2CC[C@@H](C(=O)N(C)Cc3cc(C(F)(F)F)cc(C(F)(F)F)c3)[C@H](c3ccc(F)cc3C)C2)nc1` (relative stereo) (as salt: hydrochloride) (hydrate or solvate) [Example 129, (3R*,4R*)-1-[5-(acetylamino)pyridin-2-yl]-N-[3,5-bis(trifluoromethyl)benzyl]-3-(4-fluoro-2-methylphenyl)-N-methylpiperidine-4-carboxamide monohydrochloride], for which the melting point (as a rule, the temperature, or range, at which the solid turns liquid) was 213 to 215 °C.

In turn, `Cc1cc(F)ccc1[C@@H]1CN(CC(=O)NC2CC2)CC[C@H]1C(=O)N(C)Cc1cc(C(F)(F)F)cc(C(F)(F)F)c1` (relative stereo) (as salt: hydrochloride) [Example 103, (3R*,4R*)—N-[3,5-bis(trifluoromethyl)benzyl]-1-[2-(cyclopropylamino)-2-oxoethyl]-3-(4-fluoro-2-methylphenyl)-N-methylpiperidine-4-carboxamide monohydrochloride] displayed a melting point of 210 to 214 °C.

In the case of `Cc1cc(F)ccc1[C@@H]1CN(CC(=O)N2CCC(O)CC2)CC[C@H]1C(=O)N(C)Cc1cc(C(F)(F)F)cc(C(F)(F)F)c1` (relative stereo) (as salt: hydrochloride) [Example 104, (3R*,4R*)—N-[3,5-bis(trifluoromethyl)benzyl]-3-(4-fluoro-2-methylphenyl)-1-[2-(4-hydroxypiperidin-1-yl)-2-oxoethyl]-N-methylpiperidine-4-carboxamide monohydrochloride], the melting point fell in the range of 220 to 224 °C.

The compound `Cc1cc(F)ccc1[C@@H]1CN(C(C)(C)C(N)=O)CC[C@H]1C(=O)N(C)Cc1cc(C(F)(F)F)cc(C(F)(F)F)c1` (relative stereo) (as salt: hydrochloride) [Example 113, (3R*,4R*)-1-(2-amino-1,1-dimethyl-2-oxoethyl)-N-[3,5-bis(trifluoromethyl)benzyl]-3-(4-fluoro-2-methylphenyl)-N-methylpiperidine-4-carboxamide monohydrochloride] registered a melting point of 209 to 211 °C.

`Cc1cc(F)ccc1[C@@H]1CN(C(C)CO)CC[C@H]1C(=O)N(C)Cc1cc(C(F)(F)F)cc(C(F)(F)F)c1` (relative stereo) (as salt: hydrochloride) [Example 120, (3R*,4R*)—N-[3,5-bis(trifluoromethyl)benzyl]-3-(4-fluoro-2-methylphenyl)-1-(2-hydroxy-1-methylethyl)-N-methylpiperidine-4-carboxamide monohydrochloride] displayed a melting point of 234 to 236 °C.

In the case of `Cc1cc(F)ccc1[C@@H]1CN(S(=O)(=O)CCN2CCOCC2)CC[C@H]1C(=O)N(C)Cc1cc(C(F)(F)F)cc(C(F)(F)F)c1` (relative stereo) (as salt: hydrochloride) [Example 139, (3R*,4R*)—N-[3,5-bis(trifluoromethyl)benzyl]-3-(4-fluoro-2-methylphenyl)-N-methyl-1-[(2-morpholin-4-ylethyl)sulfonyl]piperidine-4-carboxamide monohydrochloride], the melting point was in the range of 196 to 198 °C.

In turn, `Cc1ccccc1[C@@H]1CN(C(=O)C2CCN(C(=O)CO)CC2)CC[C@H]1C(=O)N(C)Cc1cc(C(F)(F)F)cc(C(F)(F)F)c1` (relative stereo) [Example 16, (3R*,4R*)—N-[3,5-bis(trifluoromethyl)benzyl]-1-[(1-glycoloylpiperidin-4-yl)carbonyl]-N-methyl-3-(2-methylphenyl)piperidine-4-carboxamide] showed a melting point of 173 to 174 °C.

The compound `Cc1cc(F)ccc1[C@@H]1CN(C2=CC(=O)CC2)CC[C@H]1C(=O)N(C)Cc1cc(C(F)(F)F)cc(C(F)(F)F)c1` (relative stereo) [Example 118, (3R*,4R*)—N-[3,5-bis(trifluoromethyl)benzyl]-3-(4-fluoro-2-methylphenyl)-N-methyl-1-(3-oxocyclopent-1-en-1-yl)piperidine-4-carboxamide] yielded a melting point of 192 to 193 °C. The IC50 – broadly, the point on the concentration scale where inhibition reaches its midpoint – on substance P receptor came to 0.06 nM.

As to `Cc1cc(F)ccc1[C@@H]1CN(C2=CC(=O)C(C)(C)CC2)CC[C@H]1C(=O)N(C)Cc1cc(C(F)(F)F)cc(C(F)(F)F)c1` (relative stereo) [Example 119, (3R*,4R*)—N-[3,5-bis(trifluoromethyl)benzyl]-1-(4,4-dimethyl-3-oxocyclohex-1-en-1-yl)-3-(4-fluoro-2-methylphenyl)-N-methylpiperidine-4-carboxamide], the melting point fell in the range of 137 to 138 °C. Besides, the IC50 at substance P receptor amounted to 0.06 nM.

Take `CCS(=O)(=O)N1CC[C@@H](C(=O)N(C)Cc2cc(C(F)(F)F)cc(C(F)(F)F)c2)[C@H](c2ccc(F)cc2C)C1` (relative stereo) [Example 132, (3R*,4R*)—N-[3,5-bis(trifluoromethyl)benzyl]-1-(ethylsulfonyl)-3-(4-fluoro-2-methylphenyl)-N-methylpiperidine-4-carboxamide]: the melting point was 170 to 171 °C. The IC50 on substance P receptor came to 0.04 nM.

`CCOCCS(=O)(=O)N1CC[C@@H](C(=O)N(C)Cc2cc(C(F)(F)F)cc(C(F)(F)F)c2)[C@H](c2ccc(F)cc2C)C1` (relative stereo) [Example 138, (3R*,4R*)—N-[3,5-bis(trifluoromethyl)benzyl]-1-[(2-ethoxyethyl)sulfonyl]-3-(4-fluoro-2-methylphenyl)-N-methylpiperidine-4-carboxamide] showed a melting point of 151 to 153 °C. At substance P receptor, this compound displayed an IC50 of 0.078 nM.

In turn, `Cc1cc(F)ccc1[C@@H]1CN(S(=O)(=O)N(C)C)CC[C@H]1C(=O)N(C)Cc1cc(C(F)(F)F)cc(C(F)(F)F)c1` (relative stereo) [Example 142, (3R*,4R*)—N-[3,5-bis(trifluoromethyl)benzyl]-1-[(dimethylamino)sulfonyl]-3-(4-fluoro-2-methylphenyl)-N-methylpiperidine-4-carboxamide] registered a melting point of 142 to 144 °C. This compound gave an IC50 on substance P receptor of 0.055 nM.

In the case of `Cc1cc(F)ccc1[C@@H]1CN(S(=O)(=O)c2ccccn2)CC[C@H]1C(=O)N(C)Cc1cc(C(F)(F)F)cc(C(F)(F)F)c1` (relative stereo) [Example 144, (3R*,4R*)—N-[3,5-bis(trifluoromethyl)benzyl]-3-(4-fluoro-2-methylphenyl)-N-methyl-1-(pyridin-2-ylsulfonyl)piperidine-4-carboxamide], the melting point was 187 to 189 °C. Besides, the IC50 at substance P receptor worked out at 0.045 nM.

In turn, `Cc1cc(F)ccc1[C@H]1CN(CC(N)=O)CC[C@@H]1C(=O)N(C)[C@@H](C)c1cc(C(F)(F)F)cc(C(F)(F)F)c1` [Example 156, (3S,4S)-1-(2-amino-2-oxoethyl)-N-{(1S)-1-[3,5-bis(trifluoromethyl)phenyl]ethyl}-3-(4-fluoro-2-methylphenyl)-N-methylpiperidine-4-carboxamide] yielded a melting point of 161 to 164 °C. At substance P receptor, this compound had an IC50 of 0.024 nM.

Compound `Cc1cc(F)ccc1[C@H]1CN(S(=O)(=O)C2CC2)CC[C@@H]1C(=O)N(C)[C@@H](C)c1cc(C(F)(F)F)cc(C(F)(F)F)c1` [Example 162, (3S,4S)—N-{(1S)-1-[3,5-bis(trifluoromethyl)phenyl]ethyl}-1-(cyclopropylsulfonyl)-3-(4-fluoro-2-methylphenyl)-N-methylpiperidine-4-carboxamide] showed a melting point of 154 to 156 °C. The compound also returned an IC50 on substance P receptor of 0.081 nM.
